According to patent US10155727B2, “Pyrazoles” (Janssen Pharmaceuticals, Inc., priority 2014, dated 2018):
Like-named read-outs stand apart in the source and are kept apart here.

Columns and labels:
[1] = molecular target: rat NR1/NR2B receptor (Rattus norvegicus (Rat), UniProt P35439+Q00960); assay: NR2B binding assay: inhibition of specific [3H]-Ifenprodil binding to the rat NR1/NR2B receptor; settings: [3H]-Ifenprodil binding, rat brain membranes
[2] = molecular target: human NR1/NR2B ion channels (Homo sapiens (Human), UniProt Q05586+Q13224); assay: HNR2BC: calcium influx assay on cloned human NR1/NR2B ion channels expressed in HEK cells; type: cell-based; settings: HEK cells with hNR1/NR2B, 100 μM glutamate + 100 μM glycine, 3 parameter plot
Method: HNR2BC: Effects of Test Articles on Cloned Human NR1/NR2B Ion Channels Expressed in Mammalian Cells
The ability of test compounds to act as an antagonist of NR1/NR2B was evaluated with a calcium influx assay (Calcium 5 Assay Kit, Molecular Devices).
For the antagonist assessment, NR1/NR2B was activated with the positive control agonist (Mg^2+-free HBPS+100 μM glutamic acid+100 μM glycine).
A HEK cell line, stable transfected with hNR1/NR2B was used. This tetracycline inducible cell line is transfected with GRIN1 (GeneBank accession number NM_007327.2) and GRIN2B (GeneBank accession number NM_000834.3.). The cells were cultured in cell culture flasks with DMEM/F12 supplemented with 10% FCS, 1% PenStrep and a selection of additional antibiotics.
Forty-Eight (48) hours before the assay the cells were plated into 96-well black well, flat clear bottom microtiter plates at a density of 50000 cells/well. Twenty-Four (24) hours later the receptor expression was induced by the addition of 1 μg/ml tetracycline in the presence of 2 mM ketamine and 200 μM 7-CKA. After 24 h of receptor induction the plates were used for the assay.
The medium was removed and the cells were loaded with 200 μl loading buffer (Molecular Devices) in Mg2+-free HBPS containing 100 μM 7-CKA at 37° C. for one (1) hour.
The test compounds were then solubilized in 100% DMSO and diluted to yield eight (8) different concentrations in 100% DMSO. A 96 well drug plate was prepared by diluting with water and glycine/glutamate to a 5-fold of final test concentration. Fluorescence intensity of the cells in the plate was measured in a FlexStation using an excitation wavelength of 485 nm and an emission wavelength of 525 nm. Twenty (20) seconds after starting the recordings the compounds together with the agonists glycine (100 μM) and glutamate (100 μM) were added into the wells and the fluorescence measured for ninety (90) seconds in summary.
The IC50 values provided in the paragraph below were determined using a 3 parameter plot.

[3] = molecular target: hERG receptor (Homo sapiens (Human), UniProt Q12809); assay: HERGBD: inhibition of specific [3H]-Dofetilide binding to the hERG receptor
[4] = tested on: mice; assay: Forced swim test in mice; type: in vivo; settings: p.o. 30 minutes before the test, male NMRI mice
Method: The compounds of the invention show significant antidepressive effects in the forced swim test in mice, an animal model of depression at doses of 100 mg/kg or below.
The method, which detects antidepressant activity, follows that described by Porsolt et al (Arch. Int. Pharmacodyn., 229, 327-336, 1977), which is incorporated by reference herein in its entirety.
Mice forced to swim in a situation from which they cannot escape rapidly become immobile. Antidepressants decrease the duration of immobility.
Male NMRI mice (Janvier, France), weighing 20-30 g, were individually placed in a cylinder (height=24 cm; diameter=13 cm) containing 10 cm water (22° C.) from which they cannot escape.
The mice were placed in the water for 6 minutes and the duration of immobility during the last 4 minutes was measured. The latency to the first bout of immobility was also recorded starting from the beginning of the test. 10 mice were studied per group. The test substance was administered p.o. 30 minutes before the test and compared with vehicle control group. The test was performed blind.

[5] = [3H]-Dofetilide binding, membranes of HEK cells with human ERG receptor, read-out: IC50

Sequence of human NR1/NR2B ion channels (Q13224 27-1484, other chains not shown): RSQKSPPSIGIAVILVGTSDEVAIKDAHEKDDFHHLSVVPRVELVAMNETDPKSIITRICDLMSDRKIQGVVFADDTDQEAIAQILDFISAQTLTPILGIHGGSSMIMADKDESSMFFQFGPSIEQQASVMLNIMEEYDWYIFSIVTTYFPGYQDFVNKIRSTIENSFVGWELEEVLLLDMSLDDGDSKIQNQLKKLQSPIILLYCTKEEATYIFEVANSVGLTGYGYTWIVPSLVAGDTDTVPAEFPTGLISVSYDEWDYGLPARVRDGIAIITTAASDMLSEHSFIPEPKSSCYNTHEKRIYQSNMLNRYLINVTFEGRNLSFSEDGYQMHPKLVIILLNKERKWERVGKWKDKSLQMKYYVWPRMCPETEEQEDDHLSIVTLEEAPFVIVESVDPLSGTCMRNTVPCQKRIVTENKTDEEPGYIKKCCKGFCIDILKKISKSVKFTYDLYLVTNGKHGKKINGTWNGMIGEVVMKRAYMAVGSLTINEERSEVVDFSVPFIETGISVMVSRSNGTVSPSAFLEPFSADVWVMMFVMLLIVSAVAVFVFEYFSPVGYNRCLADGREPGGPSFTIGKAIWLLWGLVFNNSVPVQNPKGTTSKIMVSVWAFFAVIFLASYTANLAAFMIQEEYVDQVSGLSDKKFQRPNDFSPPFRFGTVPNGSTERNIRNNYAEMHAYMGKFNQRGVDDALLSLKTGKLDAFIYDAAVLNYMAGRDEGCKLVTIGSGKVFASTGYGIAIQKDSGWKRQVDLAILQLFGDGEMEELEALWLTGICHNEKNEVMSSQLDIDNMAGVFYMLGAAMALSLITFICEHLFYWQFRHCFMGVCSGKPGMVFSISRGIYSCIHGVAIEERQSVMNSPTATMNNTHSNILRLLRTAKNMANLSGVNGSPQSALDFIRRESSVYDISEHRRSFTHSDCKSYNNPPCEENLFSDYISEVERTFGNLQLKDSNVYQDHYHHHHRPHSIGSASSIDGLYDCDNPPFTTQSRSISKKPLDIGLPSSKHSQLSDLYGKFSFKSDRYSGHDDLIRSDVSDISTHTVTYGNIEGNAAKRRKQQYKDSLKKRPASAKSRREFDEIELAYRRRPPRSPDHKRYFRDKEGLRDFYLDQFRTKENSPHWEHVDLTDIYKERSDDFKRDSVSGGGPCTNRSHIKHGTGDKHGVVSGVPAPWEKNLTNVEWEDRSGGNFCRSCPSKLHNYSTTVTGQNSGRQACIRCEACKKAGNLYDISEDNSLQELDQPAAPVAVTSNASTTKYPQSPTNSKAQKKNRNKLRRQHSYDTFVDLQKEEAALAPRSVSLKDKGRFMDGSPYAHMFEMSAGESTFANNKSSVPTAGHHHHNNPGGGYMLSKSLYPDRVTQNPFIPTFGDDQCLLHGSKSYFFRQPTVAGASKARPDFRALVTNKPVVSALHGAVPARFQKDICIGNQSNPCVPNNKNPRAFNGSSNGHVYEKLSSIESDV
Sequence of rat NR1/NR2B receptor (Q00960 27-1482, other chains not shown): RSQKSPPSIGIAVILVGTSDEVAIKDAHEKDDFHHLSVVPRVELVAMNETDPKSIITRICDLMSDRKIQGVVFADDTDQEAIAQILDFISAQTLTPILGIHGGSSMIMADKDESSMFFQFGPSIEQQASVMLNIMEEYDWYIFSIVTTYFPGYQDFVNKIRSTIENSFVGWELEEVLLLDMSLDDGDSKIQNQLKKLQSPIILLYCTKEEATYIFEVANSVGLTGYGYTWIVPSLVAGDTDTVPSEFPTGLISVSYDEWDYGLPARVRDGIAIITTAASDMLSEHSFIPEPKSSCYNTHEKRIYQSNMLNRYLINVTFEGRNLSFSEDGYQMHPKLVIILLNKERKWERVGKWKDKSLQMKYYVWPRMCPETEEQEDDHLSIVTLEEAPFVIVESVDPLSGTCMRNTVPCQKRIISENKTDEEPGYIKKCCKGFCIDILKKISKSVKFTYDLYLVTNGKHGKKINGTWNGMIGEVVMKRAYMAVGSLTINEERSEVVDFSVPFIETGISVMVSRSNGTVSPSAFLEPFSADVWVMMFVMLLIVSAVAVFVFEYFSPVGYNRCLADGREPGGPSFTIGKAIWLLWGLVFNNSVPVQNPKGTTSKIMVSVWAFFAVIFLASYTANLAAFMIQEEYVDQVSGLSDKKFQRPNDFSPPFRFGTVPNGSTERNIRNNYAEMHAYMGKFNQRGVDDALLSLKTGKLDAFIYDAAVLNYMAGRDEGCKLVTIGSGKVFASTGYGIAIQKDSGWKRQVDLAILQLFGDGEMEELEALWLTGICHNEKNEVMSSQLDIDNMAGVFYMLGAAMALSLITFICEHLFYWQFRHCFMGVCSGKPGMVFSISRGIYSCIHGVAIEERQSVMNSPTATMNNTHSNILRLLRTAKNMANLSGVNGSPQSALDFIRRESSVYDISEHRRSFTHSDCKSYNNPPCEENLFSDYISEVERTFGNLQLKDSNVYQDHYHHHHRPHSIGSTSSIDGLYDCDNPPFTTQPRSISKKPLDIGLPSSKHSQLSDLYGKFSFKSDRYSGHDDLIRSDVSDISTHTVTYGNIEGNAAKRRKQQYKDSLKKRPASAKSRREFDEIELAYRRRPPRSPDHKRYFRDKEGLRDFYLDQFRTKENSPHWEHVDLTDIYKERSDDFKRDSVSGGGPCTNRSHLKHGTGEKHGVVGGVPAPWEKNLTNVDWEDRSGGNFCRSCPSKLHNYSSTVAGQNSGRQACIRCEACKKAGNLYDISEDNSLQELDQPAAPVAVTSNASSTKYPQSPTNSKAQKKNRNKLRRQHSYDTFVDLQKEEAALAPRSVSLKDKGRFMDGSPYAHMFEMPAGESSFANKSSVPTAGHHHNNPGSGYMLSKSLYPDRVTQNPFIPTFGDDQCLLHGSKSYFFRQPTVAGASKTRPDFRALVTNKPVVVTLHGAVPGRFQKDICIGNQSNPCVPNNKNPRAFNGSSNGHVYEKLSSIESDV
Sequence of hERG receptor (Q12809 whole entry): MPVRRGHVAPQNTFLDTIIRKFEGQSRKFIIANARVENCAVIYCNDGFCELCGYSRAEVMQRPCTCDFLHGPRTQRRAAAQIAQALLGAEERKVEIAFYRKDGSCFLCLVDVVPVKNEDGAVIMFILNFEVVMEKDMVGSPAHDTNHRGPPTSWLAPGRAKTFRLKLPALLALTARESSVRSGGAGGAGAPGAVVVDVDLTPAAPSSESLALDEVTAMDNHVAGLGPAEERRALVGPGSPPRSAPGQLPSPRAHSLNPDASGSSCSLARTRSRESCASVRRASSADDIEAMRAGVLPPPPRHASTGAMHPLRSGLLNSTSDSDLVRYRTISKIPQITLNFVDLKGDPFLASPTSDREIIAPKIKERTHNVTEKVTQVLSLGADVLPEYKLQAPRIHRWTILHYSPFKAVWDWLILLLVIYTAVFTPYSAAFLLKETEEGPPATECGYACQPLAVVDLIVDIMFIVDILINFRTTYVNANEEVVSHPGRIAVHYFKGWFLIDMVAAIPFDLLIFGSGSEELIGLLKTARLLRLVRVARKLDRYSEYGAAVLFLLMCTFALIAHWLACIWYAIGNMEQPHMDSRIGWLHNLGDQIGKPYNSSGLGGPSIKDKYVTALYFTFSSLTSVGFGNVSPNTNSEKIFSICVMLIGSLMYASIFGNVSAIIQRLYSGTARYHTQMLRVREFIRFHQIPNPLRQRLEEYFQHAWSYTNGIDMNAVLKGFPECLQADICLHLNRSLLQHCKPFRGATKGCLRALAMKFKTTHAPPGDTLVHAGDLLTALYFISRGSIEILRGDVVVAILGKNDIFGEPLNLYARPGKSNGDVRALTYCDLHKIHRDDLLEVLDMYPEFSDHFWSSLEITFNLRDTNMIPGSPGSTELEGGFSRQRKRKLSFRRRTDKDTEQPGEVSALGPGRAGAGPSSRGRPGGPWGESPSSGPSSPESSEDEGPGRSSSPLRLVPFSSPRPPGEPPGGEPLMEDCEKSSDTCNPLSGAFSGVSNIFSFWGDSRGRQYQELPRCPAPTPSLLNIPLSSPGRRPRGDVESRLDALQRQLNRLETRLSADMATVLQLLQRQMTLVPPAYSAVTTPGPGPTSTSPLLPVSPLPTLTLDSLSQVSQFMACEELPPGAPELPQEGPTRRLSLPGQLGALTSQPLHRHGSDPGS

SMILES	IC50 [1]	IC50 [2]	IC50 [3]	IC50 [3, 5]	Minimum effective dose [4]
Cc1cc(Cn2cc(-c3ccc(Cl)cc3)cn2)n(C)n1 [Example 74, 5-[[4-(4-Chlorophenyl)pyrazol-1-yl]methyl]-1,3-dimethyl-pyrazole]	6.06 µM	51 µM	> 100 µM	–	–
Cc1[nH]ncc1Cn1cc(-c2ccc(F)c(C(F)F)c2)cn1 [Example 42, 4-[3-(Difluoromethyl)-4-fluoro-phenyl]-1-[(5-methyl-1H-pyrazol-4-yl)methyl]pyrazole]	0.202 µM	2.3 µM	71.6 µM	–	–
Cn1ccc(Cn2cc(-c3ccc(Cl)cc3)cn2)n1 [Example 75, 3-[[4-(4-Chlorophenyl)pyrazol-1-yl]methyl]-1-methyl-pyrazole]	3.04 µM	33.8 µM	131 µM	–	–
Cc1n[nH]c(C)c1Cn1cc(-c2ccc(Cl)c(OC(F)F)c2)cn1 [Example 88, 4-[[4-(3-difluoromethoxy-4-chloro-phenyl)pyrazol-1-yl]methyl]-3,5-dimethyl-1H-pyrazole]	0.152 µM	> 10 µM	43.2 µM	–	–
CCc1c[nH]nc1Cn1cc(-c2ccc(F)c(OC(F)F)c2)cn1 [Example 91, 3-[[4-[3-(difluoromethoxy)-4-fluoro-phenyl]pyrazol-1-yl]methyl]-4-ethyl-1H-pyrazole Succinate]	0.0438 µM	1.25 µM	48.9 µM	–	–
FC(F)Oc1cc(-c2cnn(Cc3cn[nH]c3)c2)ccc1Cl [Example 7, 4-[4-Chloro-3-(difluoromethoxy)phenyl]-1-(1H-pyrazol-4-ylmethyl)pyrazole]	0.00823 µM	0.35 µM	52.6 µM	–	–
CCc1cc(Cn2cc(-c3ccc(Cl)c(OC(F)F)c3)cn2)n[nH]1 [Example 14, 3-[[4-[4-Chloro-3-(difluoromethoxy)phenyl]pyrazol-1-yl]methyl]-5-ethyl-1H-pyrazole]	0.0762 µM	> 10 µM	–	16.1 µM	–
Cc1cc(Cn2cc(-c3ccc(F)c(C(F)F)c3)cn2)[nH]n1 [Example 39, 4-[3-(Difluoromethyl)-4-fluoro-phenyl]-1-[(3-methyl-1H-pyrazol-5-yl)methyl]pyrazole]	0.102 µM	2.4 µM	90.2 µM	–	–
Cn1ccc(Cn2cc(-c3ccc(Cl)c(OC(F)F)c3)cn2)n1 [Example 2, 3-[[4-[4-Chloro-3-(difluoromethoxy)phenyl]pyrazol-1-yl]methyl]-1-methyl-pyrazole]	–	2.46 µM	–	–	30 mg/kg
CCc1[nH]ncc1Cn1cc(-c2ccc(F)c(C(F)F)c2)cn1 [Example 43, 4-[3-(Difluoromethyl)-4-fluoro-phenyl]-1-[(5-ethyl-1H-pyrazol-4-yl)methyl]pyrazole]	0.134 µM	2.66 µM	57.4 µM	–	–
CCc1cc(Cn2cc(-c3ccc(F)c(C(F)F)c3)cn2)n[nH]1 [Example 40, 3-[[4-[3-(Difluoromethyl)-4-fluoro-phenyl]pyrazol-1-yl]methyl]-5-ethyl-1H-pyrazole]	0.047 µM	3.3 µM	23.3 µM	–	–
Cn1ccc(Cn2cc(-c3ccc(F)c(C(F)F)c3)cn2)n1 [Example 31, 3-[[4-[3-(difluoromethyl)-4-fluoro-phenyl]pyrazol-1-yl]methyl]-1-methyl-pyrazole Succinate]	0.264 µM	7.77 µM	19.7 µM	–	–
CC(F)(F)c1cc(-c2cnn(Cc3cc[nH]n3)c2)ccc1F [Example 44, 4-[3-(1,1-difluoroethyl)-4-fluoro-phenyl]-1-(1H-pyrazol-3-ylmethyl)pyrazole Succinate]	0.0171 µM	0.53 µM	> 100 µM	–	–
CCCc1cc(Cn2cc(-c3ccc(F)c(C(F)F)c3)cn2)n[nH]1 [Example 41, 3-[[4-[3-(Difluoromethyl)-4-fluoro-phenyl]pyrazol-1-yl]methyl]-5-propyl-1H-pyrazole]	0.114 µM	59.7 µM	16 µM	–	–
Cc1[nH]ncc1Cn1cc(-c2ccc(Cl)c(OC(F)F)c2)cn1 [Example 16, 4-[4-Chloro-3-(difluoromethoxy)phenyl]-1-[(5-methyl-1H-pyrazol-4-yl)methyl]pyrazole]	0.0411 µM	2.15 µM	64.7 µM	–	–
Fc1ccc(-c2cnn(Cc3cc[nH]n3)c2)cc1OC(F)F [Example 18, 4-[3-(difluoromethoxy)-4-fluoro-phenyl]-1-(1H-pyrazol-3-ylmethyl) pyrazole]	–	0.37 µM	–	–	10 mg/kg
CCc1c[nH]nc1Cn1cc(-c2ccc(F)c(C(F)F)c2)cn1 [Example 92, 3-[[4-[3-(difluoromethyl)-4-fluoro-phenyl]pyrazol-1-yl]methyl]-4-ethyl-1H-pyrazole]	0.0712 µM	11.9 µM	–	27.4 µM	–
